Results as given in EPA's ToxValDB 9.5 (doi:10.2903/j.efsa.2016.4419).

Key:
Rattus norvegicus = settings: for LD50: acute, mortality
Lepomis macrochirus = settings: acute; duration: 96 hours; mortality
Folsomia candida = settings: chronic/long-term; duration: 14 days; reproduction
Oncorhynchus mykiss = settings: acute; duration: 96 hours; mortality
Apis mellifera = settings: acute, mortality
Pimephales promelas = settings: chronic/long-term; duration: 36 days; clinical signs
Daphnia pulex = settings: chronic/long-term; duration: 21 days; reproduction
Colinus virginianus = settings: acute, oral, mortality
Mus musculus = settings: reproduction developmental; organ weight

CS(=O)(=O)c1ccc(C(=O)O)c(N)c1 [2-Amino-4-(methylsulfonyl)benzoic acid]
LD50 (Rattus norvegicus): > 5000 mg/kg

CS(=O)(=O)c1ccc(C(=O)C2C(=O)CCCC2=O)c([N+](=O)[O-])c1 [Mesotrione]
LC50 (Lepomis macrochirus): > 120 µg/mL
NOEC (Folsomia candida): 50.5 mg/kg
LC50 (Oncorhynchus mykiss): > 120 µg/mL
LD50 (Rattus norvegicus; oral): > 5000 mg/kg
NOEL (Rattus norvegicus; reproduction developmental, organ weight): 0.3 mg/kg-day
NOEL (Anas platyrhynchos; reproductive): 20.6 mg/kg-day
LC50 (Anas platyrhynchos; short-term, oral, feed, mortality): > 5200 mg/kg
LD50 (Apis mellifera; dermal): 52.5 µg/piece
LD50 (Apis mellifera; oral, unspecified): > 11 µg/piece
NOEC (Pimephales promelas): 12.5 mg/L
NOEC (Daphnia pulex): 180 mg/L
LC50 (Tagia sp.; acute, mortality): > 2000 mg/kg
NOEC (Tagia sp.; chronic/long-term, reproduction): 10.8 mg/kg
LC50 (Colinus virginianus; diet): > 5200 mg/kg
LD50 (Colinus virginianus): > 2000 mg/kg
NOAEL (Mus musculus): 2 mg/kg-day
